The source of these data is patent US7417062B2, “Substituted arylamides” (ChemoCentryx, Inc., priority 2004, dated 2008).

Each structure is given as a SMILES string.

The target of one test is T1, CCXCKR2 receptor (Homo sapiens, UniProt P25106).
T1 construct: host or cells: MCF-7 (endogenous) and/or MDA-MB-435S transfected with hRDC1 in pcDNA3.1(+)
T1 sequence (P25106 whole entry): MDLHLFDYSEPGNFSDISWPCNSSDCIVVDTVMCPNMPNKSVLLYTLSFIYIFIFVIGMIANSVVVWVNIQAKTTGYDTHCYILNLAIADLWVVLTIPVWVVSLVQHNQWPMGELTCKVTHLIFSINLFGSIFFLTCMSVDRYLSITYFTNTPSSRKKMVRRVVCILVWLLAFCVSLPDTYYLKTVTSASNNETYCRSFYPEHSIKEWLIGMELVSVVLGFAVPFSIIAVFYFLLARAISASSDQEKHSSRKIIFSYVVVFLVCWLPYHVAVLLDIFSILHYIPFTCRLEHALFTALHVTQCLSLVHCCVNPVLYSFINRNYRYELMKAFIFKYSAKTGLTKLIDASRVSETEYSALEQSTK
The test can be described thus: Displacement of 125I-labeled SDF-1 from the CCXCKR2 receptor (radioligand binding, determination of IC50 values).
Settings: not given
On the procedure: The ability of the compounds to displace the labeled chemokine from the CCXCKR2 receptor sites at multiple concentrations was then determined with the screening process.
Compounds that were deemed effective modulators were able to displace at least 50% of the SDF-1 from the CCXCKR2 receptor at concentrations at or below 10 micromolar (μM) and more preferably at concentrations at or below 2 micromolar. At present, especially preferred compounds can displace at least 50% of the SDF-1 from the CCXCKR2 receptor at concentrations at or below 500 nM. Exemplary compounds that met these criteria are reproduced in Table B below. All compounds were prepared as described in the Examples above, or by related methods substituting readily available starting materials.
Reagents and Cells. ^125I-labeled SDF-1 was purchased from Perkin-Elmer Life Sciences, Inc. (Boston, Mass.). The MCF-7 (adenocarcinoma; mammary gland) cell line was obtained from the American Type Culture Collection (Manassas, Va.) or and was cultured in DMEM (Mediatech, Herndon, Va.) supplemented with 10% fetal bovine serum (FBS) (HyClone Logan, Utah) and bovine insulin (0.01 mg/mL) (Sigma, St. Louis, Mo.) at 37° C. in a humidified incubator at a 5% CO2/air mixture. CCXCKR2 transfected MDA-MB-435S were produced as described below. MDA-MB-435S human breast cancer line, was purchased from ATCC, and cultured in DMEM/10% FBS medium. The complete coding sequence of the gene encoding CCXCKR2 (a.k.a.CXCR7, hRDC1), was isolated from MCF-7 cells using μMACs mRNA isolation kit (Miltenyi Biotec, Auburn, Calif.). DNA contamination was removed by DNase digestion via RNeasy columns (Qiagen, Inc., Valencia, Calif.) and cDNA was generated using GeneAmp RNA PCR Core Kit (Applied Biosystems, Foster City, Calif.). PCR of cDNA samples was performed using Taq PCR Master Mix kit (Qiagen, Inc.) and hRDC1 primers harboring 5′ and 3′ Not I sites (hRDC1F 5′-[…]-3′ (SEQ ID NO:1), hRDC1R 5′-[…]-3′ (SEQ ID NO:2)) Not I digested PCR product was ligated into Not I digested pcDNA3.1(+)(Invitrogen, Carlsbad, Calif.) and screened for orientation and sequence confirmed. Plasmid DNA was then isolated from overnight bacterial cultures by Maxiprep (Qiagen, Inc.). Plasmid DNA (10 μg) was added to MDA-MB-435s cells and cells were electroporated (0.22 kV, 960 uF) via Gene Pulser (Biorad laboratories, Hercules, Calif.). 48 hr post-electroporation, cells were transferred to selection medium (1000 ug/ml G418).
Binding Analysis. Target compounds were tested to determine their ability to bind with CCXCKR2 sites on MCF-7 and/or MDA-MB-435S cells. Efficiency-maximized radioligand binding using filtration protocols as described in Dairaghi D J, et al., HHV8-encoded vMIP-I selectively engages chemokine receptor CCR5. Agonist and antagonist profiles of viral chemokines., J. Biol. Chem. 1999 Jul. 30; 274(31): 21569-74 and Gosling J, et al., Cutting edge: identification of a novel chemokine receptor that binds dendritic cell-and T cell-active chemokines including ELC, SLC, and TECK., J. Immunol. 2000 Mar. 15; 164(6):2851-6 was used.
In these assays, MCF-7 and/or MDA-MB-435S cells were interrogated with the target compounds and the ability of these compounds to displace ^125I radiolabeled SDF-1 was assessed using the protocol described in Dairaghi and Gosling. The target compounds were added to the plate to the indicated concentration and were then incubated with cells followed by the addition of radiolabeled chemokine (^125I SDF-1) for 3 hr at 4° C. in the following binding medium (25 mM HEPES, 140 mM NaCl, 1 mM CaCl2, 5 mM MgCl2 and 0.2% bovine serum albumin, adjusted to pH 7.1). All assays were then incubated for 3 hrs at 4° C. with gentle agitation. Following incubation in all binding assays, reactions were aspirated onto PEI-treated GF/B glass filters (Packard) using a cell harvester (Packard) and washed twice (25 mM HEPES, 500 mM NaCl, 1 mM CaCl2, 5 mM MgCl2, adjusted to pH 7.1). […]
On to `COc1cc(C(=O)N(Cc2cc3ccccc3cn2)C[C@@H]2CCCN2C[C@@H]2C[C@H]3CC[C@@H](C2)N3)cc2c1OC(C)(C)O2` [Example 63, 7-Methoxy-2,2-dimethyl-benzo[1,3]dioxole-5-carboxylic acid {(S)-1-[(1S,3S,5R)-1-(8-aza-bicyclo[3.2.1]oct-3-yl)methyl]-pyrrolidin-2-ylmethyl}-isoquinolin-3-ylmethyl-amide], for which the IC50 was < 500 nM.

Staying with this test, now noted: MCF-7 and/or MDA-MB-435S cells expressing CCXCKR2; 125I SDF-1; 3 hr at 4° C.; read-out: Activity (ability to displace 125I SDF-1 from CCXCKR2).
With `COc1cc(C(=O)N(Cc2nc(-c3ccccc3)cs2)C[C@@H]2C[C@@H]3CCCC[C@@H]3N2)cc2c1OC(C)(C)O2` [Example 51, 7-Methoxy-2,2-dimethyl-benzo[1,3]dioxole-5-carboxylic acid (octahydro-indol-2-ylmethyl)-(4-phenyl-thiazol-2-ylmethyl)-amide], the IC50 was < 500 nM. Take `COc1cc(C(=O)N(Cc2nc(-c3ccccc3)cs2)C[C@@H]2CCCN2CC2CNC2)cc2c1OC(C)(C)O2` [Example 52, 7-Methoxy-2,2-dimethyl-benzo[1,3]dioxole-5-carboxylic acid ((S)-1-azetidin-3-ylmethyl-pyrrolidin-2-ylmethyl)-(4-phenyl-thiazol-2-ylmethyl)-amide]: the IC50 was < 500 nM. Regarding `COc1cc(C(=O)N(Cc2csc(-c3ccccc3)n2)C[C@@H]2CCCN2)cc2c1OC(C)(C)O2` [Example 55, 7-Methoxy-2,2-dimethyl-benzo [1,3]dioxole-5-carboxylic acid (2-phenyl-thiazol-4-ylmethyl)-pyrrolidin-2-ylmethyl-amide], the IC50 is < 500 nM. Regarding `COc1cc(C(=O)N(Cc2csc(-c3ccccc3)n2)C[C@@H]2CCCN2C)cc2c1OC(C)(C)O2` [Example 56, 7-Methoxy-2,2-dimethyl-benzo[1,3]dioxole-5-carboxylic acid ((S)-1-methyl-pyrrolidin-2-ylmethyl)-(2-phenyl-thiazol-4-ylmethyl)-amide], the IC50 was < 500 nM. The same measure, in the same setting: as for `COc1cc(C(=O)N(Cc2cc3ccccc3o2)C[C@@H]2C[C@@H]3CCCC[C@@H]3N2)cc2c1OC(C)(C)O2` [Example 57, 7-Methoxy-2,2-dimethyl-benzo[1,3]dioxole-5-carboxylic acid benzofuran-2-ylmethyl-[(2S,3aS,7aS)-1-(octahydro-indol-2-yl)methyl]-amide], the figure is < 500 nM; as for `COc1cc(C(=O)N(Cc2cc3ccccc3o2)C[C@@H]2CCCN2C2CCC2)cc2c1OC(C)(C)O2` [Example 58, 7-Methoxy-2,2-dimethyl-benzo[1,3]dioxole-5-carboxylic acid benzofuran-2-ylmethyl-((S)-1-cyclobutyl-pyrrolidin-2-ylmethyl)-amide], < 500 nM. On the same count and under the same terms, as for `COc1cc(C(=O)N(Cc2ccc3ccccc3c2)C[C@@H]2CCCN2C2CCC2)cc2c1OC(C)(C)O2` [Example 59, 7-Methoxy-2,2-dimethyl-benzo[1,3]dioxole-5-carboxylic acid ((S)-1-cyclobutyl-pyrrolidin-2-ylmethyl)-naphthalen-2-ylmethyl-amide], the figure is < 500 nM; as for `COc1cc(C(=O)N(Cc2cc3ccccc3s2)C[C@@H]2CCCN2C2CCC2)cc2c1OC(C)(C)O2` [Example 60, 7-Methoxy-2,2-dimethyl-benzo[1,3]dioxole-5-carboxylic acid benzo[b]thiophen-2-ylmethyl-((S)-1-cyclobutyl-pyrrolidin-2-ylmethyl)-amide], < 500 nM; as for `COc1cc(C(=O)N(Cc2cc3ccccc3s2)C[C@@H]2C[C@@H]3CCCC[C@@H]3N2)cc2c1OC(C)(C)O2` [Example 61, 7-Methoxy-2,2-dimethyl-benzo[1,3]dioxole-5-carboxylic acid benzo[b]thiophen-2-ylmethyl-[(2S,3aS,7aS)-1-(octahydro-indol-2-yl)methyl]-amide], < 500 nM. As for `COc1cc(C(=O)N(Cc2cc3ccccc3cn2)C[C@@H]2CCCN2C2CCC2)cc2c1OC(C)(C)O2` [Example 62, 7-Methoxy-2,2-dimethyl-benzo[1,3]dioxole-5-carboxylic acid ((S)-1-cyclobutyl-pyrrolidin-2-ylmethyl)-isoquinolin-3-ylmethyl-amide], the IC50 was < 500 nM. As for `COc1cc(C(=O)N(Cc2cc3ccccc3cn2)C[C@@H]2C[C@@H]3CCCC[C@@H]3N2)cc2c1OC(C)(C)O2` [Example 64, 7-Methoxy-2,2-dimethyl-benzo[1,3]dioxole-5-carboxylic acid isoquinolin-3-ylmethyl-[(2S,3aS,7aS)-1-(octahydro-indol-2-yl)methyl]-amide], the IC50 is < 500 nM. Turning to `COc1cc(C(=O)N(Cc2cc3ccccc3c[n+]2[O-])C[C@@H]2C[C@@H]3CCCC[C@@H]3N2)cc2c1OC(C)(C)O2` [Example 65, 7-Methoxy-2,2-dimethyl-benzo[1,3]dioxole-5-carboxylic acid [(2S,3aS,7aS)-1-(octahydro-indol-2-yl)methyl]-(2-oxy-isoquinolin-3-ylmethyl)-amide], the IC50 was < 2000 nM.

`COc1cc(C(=O)N(C[C@@H]2C[C@@H]3CCCC[C@@H]3N2)C(C)c2cc3ccccc3cn2)cc2c1OC(C)(C)O2` (stereo partly drawn) [Example 66, 7-Methoxy-2,2-dimethyl-benzo[1,3]dioxole-5-carboxylic acid (1-isoquinolin-3-yl-ethyl)-[(2S,3aS,7aS)-1-(octahydro-indol-2-yl)methyl]-amide]: the IC50 was < 500 nM. Consider `COc1cc(C(=O)N(Cc2cnc3ccccc3n2)C[C@@H]2CCCN2C2CCC2)cc2c1OC(C)(C)O2` [Example 67, 7-Methoxy-2,2-dimethyl-benzo[1,3]dioxole-5-carboxylic acid ((S)-1-cyclobutyl-pyrrolidin-2-ylmethyl)-quinoxalin-2-ylmethyl-amide], for which the IC50 is < 2000 nM. With `COc1cc(C(=O)N(Cc2cnc3ccccc3n2)C[C@@H]2C[C@@H]3CCCC[C@@H]3N2)cc2c1OC(C)(C)O2` [Example 68, 7-Methoxy-2,2-dimethyl-benzo[1,3]dioxole-5-carboxylic acid [(2S,3aS,7aS)-1-(octahydro-indol-2-yl)methyl]-quinoxalin-2-ylmethyl-amide], the IC50 is < 500 nM. For the compound `COc1cc(C(=O)N(Cc2ccc3ccccc3[n+]2[O-])C[C@@H]2CCCN2C2CCC2)cc2c1OC(C)(C)O2` [Example 69, 7-Methoxy-2,2-dimethyl-benzo[1,3]dioxole-5-carboxylic acid ((S)-1-cyclobutyl-pyrrolidin-2-ylmethyl)-(1-oxy-quinolin-2-ylmethyl)-amide], the IC50 is < 10000 nM. For the compound `COc1cc(C(=O)N(Cc2ccc3ccccc3n2)C[C@@H]2C[C@@H]3CCCC[C@@H]3N2)cc2c1OC(C)(C)O2` [Example 70, 7-Methoxy-2,2-dimethyl-benzo[1,3]dioxole-5-carboxylic acid [(2S,3aS,7aS)-1-(octahydro-indol-2-yl)methyl]-quinolin-2-ylmethyl-amide], the IC50 is < 500 nM.

As to `COc1cc(C(=O)N(C[C@@H]2C[C@@H]3CCCC[C@@H]3N2)C(C)c2ccc3ccccc3n2)cc2c1OC(C)(C)O2` (stereo partly drawn) [Example 71, 7-Methoxy-2,2-dimethyl-benzo[1,3]dioxole-5-carboxylic acid [(2S,3aS,7aS)-1-(octahydro-indol-2-yl)methyl]-(1-quinolin-2-yl-ethyl)-amide], the IC50 is < 500 nM.
